Source: patent US10098340B2, “Method for preserving cells and cell cultures” (Rich Technologies Holding Company, LLC, priority 2011, dated 2018)

Key:
[1] = tested on: U-937 cells; test: JC-1 staining of U-937 cells with flow cytometry (state of mitochondria, apoptosis) after storage under xenon; assay type: cell-based, human
Procedure: In order to obtain the data presented in these Examples, Leukemic monocyte lymphoma cells U-937 were grown in RPMI-1640 medium supplied with 15% fetal bovine serum and 10 mkg/ml gentamicin in the atmosphere of 5% CO2 at 37° C. Petri dishes containing the cell culture in exponential phase of growth were placed into a holding rack and transferred into containers having an inner volume of approximately 1.5 L which were designed for storage in hyperbaric conditions. The mixture of gases Xe—CO2 (95% and 5% respectively) was used for buildup of pressure of 0.5 to 4.0 Atm above ambient pressure over a period of 5-10 minutes, with particular parameters presented in connection with the Figures presented herein. The temperature was held from 22° C. to 37° C. in this embodiment of the invention Gases were mixed in a separate tank (or in the container/tube) based on calculation of their partial pressure. The container with Petri dishes was kept at this temperature and pressure for 2 hrs. Then the container was transferred to a refrigerator with decreased temperature (from 0.1° C. to +5° C.), while maintaining the pressure. The container was held at under these conditions for approximately 4 weeks. After that, the pressure was released and the container holding the cells was kept for 7 days in a household at a temperature of +4° C. to +10° C. and atmospheric pressure.
Accordingly, these cells respond to a large number of both extracellular and intracellular proapoptotic signals and have been used as model cells for analyzing apoptosis (Pimentel-Muiños F X, Seed B. Regulated commitment of TNF receptor signaling: a molecular switch for death or activation. Immunity. 1999 December; 11 (6):783-93; Karas M, Zaks T Z, Liu J L, LeRoith D. T cell receptor-induced activation and apoptosis in cycling human T cells occur throughout the cell cycle. Mol Biol Cell. 1999 December; 10 (12):4441-50; Valavanis C, Hu Y, Yang Y, Osborne B A, Chouaib S, Greene L, Ashwell J D, Schwartz L M. Model cell lines for the study of apoptosis in vitro. Methods Cell Biol. 2001; 66:417-36).

[2] = tested on: Jurkat cells; test: Live Jurkat cell count (trypan blue) after transfer from storage to standard cultivation conditions; assay type: cell-based; conditions: 24 hrs under standard conditions (37° C., 5% CO2) after storage, Xe+37 doxo and Xe+4 doxo vs control, FIG. 3
[3] = tested on: Jurkat cells; test: Caspase 3 activity (apoptosis) in Jurkat cells after storage under xenon pressure; assay type: cell-based; conditions: 4 Atm excessive pressure of gas comprising xenon, 24 hrs of storage, with and without doxorubicin

[Xe] [xenon] was tested. Which “development of spontaneous and induced (Doxo) apoptosis” value ([1]; 4 Atm over ambient pressure Xe, with and without doxorubicin, FIG. 5) did it give?
Its value is “prevented development of both spontaneous (no Doxo and non-treated) and induced (Doxo) apoptosis”.

And the “damage of mitochondria compared to control” value ([1]; JC-1, after 7 days of storage, control = no gas, 37° C.)?
Its value is “significantly decreased damage of mitochondria”.

And the “percentage of doxorubicin-treated cells with undamaged mitochondria” value ([1]; JC-1, vs cells stored without xenon, after 24 hrs and 7 days of storage, FIG. 5)?
Its value is “significantly higher”.

And the “action on cellular mitochondria” value ([1]; xenon both in combination with cooling and without cooling)?
The value was “exerted protective action on cellular mitochondria”.

What about the “cell growth (number of live cells) after exposure to doxorubicin” value [2] of the same compound?
Its value is “improved cell growth after exposure to doxorubicin”.

And the “development of spontaneous and induced (Doxo) apoptosis, caspase 3 activity” value ([3]; FIG. 4)?
The value was “prevented development of both spontaneous (series no Doxo in the diagram) and induced (series Doxo in the diagram) apoptosis”.

And the “development of spontaneous and induced (Doxo) apoptosis, caspase 3 activity” value ([3]; FIG. 4, listed as Xenon)?
The value was “prevented development of both spontaneous (no Doxo and non-treated) and induced (Doxo) apoptosis”.
